Results as given in the NIST ThermoML archive (doi:10.1021/acs.jced.7b00904).

Assay: refractive index (Na D-line) (dimensionless); wn = mass fraction of the nth substance listed
Conditions: 101.3 kPa, Liquid, Standard Abbe refractometry

N#C[S-].[K+] [potassium thiocyanate] + O
refractive index
Conditions	293 K	298 K	303 K	308 K	313 K
w1 = 0.218	1.3754	1.37475	1.37415	1.3731	1.3728
w1 = 0.244	1.38075	1.3802	1.3796	1.37855	1.3779
w1 = 0.265	1.38565	1.3852	1.3844	1.383	1.38205
w1 = 0.291	1.39085	1.3906	1.3896	1.38835	1.3876
w1 = 0.321	1.39825	1.39675	1.396	1.3949	1.39375
w1 = 0.359	1.4061	1.4054	1.4046	1.4033	1.40235
w1 = 0.381	1.41155	1.4105	1.4097	1.4079	1.40725
w1 = 0.406	1.41705	1.41615	1.4147	1.4139	1.41305
w1 = 0.42	1.41995	1.41945	1.4183	1.41675	1.41585
w1 = 0.435	1.42345	1.423	1.422	1.4199	1.41875
w1 = 0.451	1.42755	1.42705	1.42585	1.4241	1.4229
w1 = 0.468	1.43175	1.43085	1.4295	1.4281	1.4272
w1 = 0.477	1.43375	1.433	1.4319	1.43035	1.4294
w1 = 0.487	1.4358	1.4352	1.4344	1.43245	1.4315
w1 = 0.497	1.43825	1.43755	1.43665	1.4347	1.43375
w1 = 0.507	1.441	1.44045	1.43855	1.43715	1.4362
w1 = 0.518	1.4437	1.443	1.44095	1.4393	1.4385
w1 = 0.529	1.4465	1.44635	1.44455	1.4423	1.44175
w1 = 0.54	1.4493	1.44905	1.44675	1.4451	1.44415
w1 = 0.553	1.4521	1.45205	1.4499	1.4473	1.44725
w1 = 0.565	1.45545	1.45505	1.4534	1.45115	1.45065
w1 = 0.579	1.45915	1.4587	1.4569	1.45455	1.4536
w1 = 0.584	1.46045	1.46015	1.4584	1.4559	1.4554
w1 = 0.59	1.46215	1.4614	1.4599	1.4579	1.45645
w1 = 0.595	1.4635	1.46305	1.46155	1.4595	1.4587
w1 = 0.601	1.46515	1.46505	1.4633	1.46085	1.4596
w1 = 0.607	1.4672	1.46635	1.465	1.46265	1.462
w1 = 0.613	1.4681	1.46775	1.4663	1.46415	1.46305
w1 = 0.62	1.4694	1.4693	1.4682	1.46645	1.46495
w1 = 0.626	1.47155	1.47145	1.46985	1.46845	1.46715
w1 = 0.632	1.4733	1.47285	1.4721	1.4698	1.4689
w1 = 0.639	1.47505	1.4747	1.47385	1.47195	1.4704
w1 = 0.646	1.4771	1.47675	1.4757	1.47355	1.4724
w1 = 0.652	1.478	1.47805	1.4773	1.4761	1.4745
w1 = 0.659	1.4809	1.4805	1.4795	1.4784	1.47655
w1 = 0.667	1.48275	1.4826	1.4813	1.48045	1.47875
w1 = 0.674	1.48485	1.4846	1.4835	1.48215	1.48105
w1 = 0.681	1.4875	1.48685	1.48595	1.48455	1.483
w1 = 0.689	1.4891	1.4885	1.4876	1.4865	1.4855
w1 = 0.697	1.49135	1.4907	1.4896	1.4884	1.4871
w1 = 0.705	1.49315	1.4922	1.49135	1.49005	1.48924
